Entries after “also recorded” stand apart in the source; their conditions may differ. Where two headings read alike, the source gives them in different places.
Columns and labels:
[1] = Capillary isoelectric focusing (cIEF) analysis; format: physicochemical
Method: Auto-sampler reagents were filled according to the CFR installation and start-up procedures. Hemoglobin was used as system stability standard. Default settings for batch data analysis was used. Focus period #1 was performed for 1 min at 1,500 V for both the system suitability standards and samples. Focus period #2 was performed for 5 min at 3,000 V for the system suitability standards and 11 min at 3,000 V for the TIGC samples and matched buffer controls. Duplicate TIGC samples used Focus period #2 at 4.5 min and all samples were bracketed with a system suitability standard. Samples were automatically integrated using a peak width parameter of 0.1 and threshold of 5 and integrated between pI 7.5-9.4.

[2] = system: cynomolgus monkey mesothelin; assay: BIAcore binding affinity, cynomolgus monkey mesothelin (Example 10)
Method: (§1) Binding affinity: Binding measurements were performed in HBS-P+ buffer on a BIAcore T-100 instrument. Antibodies were diluted to 1 μg/mL in HBS-P+. Samples were centrifuged at 14,000×g for 5 min at room temperature and then supernatants were transferred to a new 1.5 mL BIAcore tube and capped. Mesothelin (50 μg) was diluted to 100 nM in 1×HBS-P+ buffer, then serial diluted 5-fold at 100, 20, 4, 0.8, and 0.16 nM in BIAcore tubes and capped. Anti-human antibody capture chip was prepared according to the manufacturer's protocol using a CM5 chip with immobilization wizard. Final capture antibody levels were 8000-9000RU, in HBS-P+. Chip was prepared for assay with five cycles of 300 sec buffer injection followed by 30 sec regeneration, all at 30 μL/min across all four flow cells.
(§2) Antibodies were captured on flow cells 2-4 by sequential injections of individual ligand solutions for 90 sec at 10 μL/min. Analyte injection was done in a single-cycle kinetics manner by sequential injections of analyte solutions from low to high concentration for 240 sec each at 30 μL/min. Detection was 2-1, 3-1, 4-1. Double-referencing was performed by a sequence of identical ligand capture injections, followed by 5 buffer-only injections for 240 sec each, dissociation for 1800 sec, and regeneration as above. All ligands were analyzed for binding to mesothelin in duplicate. […]

[3] = Concentration of purified humanized 345A12 antibodies to 5 mg/mL; format: physicochemical; settings: purified antibody in 1×DPBS
Method: The super-humanized 345A12 antibodies were purified from 350 mL of scale-up cell culture and formulated in 1×DPBS. The antibodies were concentrated for physical-chemical property evaluation.

[4] = SEC-HPLC aggregation analysis; format: physicochemical; settings: Table 21, humanized 345A12
Method: SEC-HPLC analysis was conducted using Agilent 1200 HPLC system.
Aggregation of LCcys80 ADCs was analyzed by size-exclusion, high-performance liquid chromatography (SEC-HPLC) using an Agilent 1200 HPLC. Antibodies and ADCs were prepared at 2 mg/mL in 1×DPBS, 8 μL (16 μg) of each sample was injected and run for 36 min. All data were analyzed using Agilent ChemStation software. Percent aggregation, percent monomer, and percent fragmentation were reported.

[5] = biological target: T1, rat mesothelin (Rattus norvegicus, UniProt Q9ERA7); assay: BIAcore binding affinity, rat mesothelin (Example 10)
T1 sequence (Q9ERA7 36-600): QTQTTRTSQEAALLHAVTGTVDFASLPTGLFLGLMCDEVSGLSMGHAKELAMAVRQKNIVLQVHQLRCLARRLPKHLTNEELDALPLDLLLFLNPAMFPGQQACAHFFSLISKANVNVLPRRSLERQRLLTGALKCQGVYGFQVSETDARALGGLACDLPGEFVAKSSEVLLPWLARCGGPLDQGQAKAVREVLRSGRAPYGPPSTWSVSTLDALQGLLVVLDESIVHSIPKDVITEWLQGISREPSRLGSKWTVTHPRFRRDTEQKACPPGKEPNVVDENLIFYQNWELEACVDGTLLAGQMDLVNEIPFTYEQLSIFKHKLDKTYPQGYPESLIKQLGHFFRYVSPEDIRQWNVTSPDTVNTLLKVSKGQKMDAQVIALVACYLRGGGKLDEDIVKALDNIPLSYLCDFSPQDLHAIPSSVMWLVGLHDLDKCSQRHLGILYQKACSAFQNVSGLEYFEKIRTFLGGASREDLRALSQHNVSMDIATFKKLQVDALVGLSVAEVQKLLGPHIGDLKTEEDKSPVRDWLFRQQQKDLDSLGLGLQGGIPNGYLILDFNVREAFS
Method: as §1, §2

[6] = system: MSLN-negative cell lines; assay: In vitro cytotoxicity (IC50, Crystal Violet) on MSLN-negative cell lines (Example 11); format: cell-based; settings: for IC50: read-out: In vitro cell based potency, IC50
Method: Plates were incubated at 37° C. 5% CO2 for an additional 5 days. […] Plates were read at 570 nm.

[7] = system: MSLN-positive cell lines; assay: In vitro cytotoxicity (IC50, Crystal Violet) on MSLN-positive cell lines (Example 11); settings: for IC50: read-out: In vitro cell based potency, IC50
Method: Cytotoxicity: Cells were sub-cultured and seeded at 5,000 cells/well in complete growth medium in 96-well tissue culture plates, and incubated at 37° C., 5% CO2 overnight (16 hours). Test reagents were serially diluted 1:3 in 2 mL deep-well dilution plates, starting at 200 nM (10 dilutions total). Diluted samples (100 μL) were added to the cell plates (starting concentration of test samples at 100 nM). Plates were incubated at 37° C. 5% CO2 for an additional 5 days. Medium was then discarded, and plates were washed once with 200 μL DPBS, stained with 50 μL of 0.2% Crystal Violet solution at room temperature for 15 min, and then washed extensively with tap water. Plates were air-dried, and Crystal Violet was dissolved with 200 μL of 1% SDS solution. Plates were read at 570 nm. Data was analyzed for IC50 determination using GraphPad Prism 6.

[8] = system: human mesothelioma HAY xenograft; assay: Human mesothelioma HAY xenograft model (Example 16); format: in vivo, mouse; settings: 5 mg/kg
Method: (§3) 100 μL/mouse of the mixture was injected subcutaneously.

[9] = system: human NSCLC PDX LXFA-586; assay: Human NSCLC PDX model LXFA-586; settings: 25 mg/kg single dose i.v.
Description: (§4) Animals: Female NMRI nu/nu mice, 4 to 6 weeks of age.
Xenotransplantation: LXFA-586 established growing tumor (T2N1M0) from a primary non-small cell lung adenocarcinoma human patient.
(§5) Experimental procedure: Animals were monitored until the tumor implants reached the study volume criteria of 50-250 mm^3 (e.g., 80-200 mmi) in a sufficient number of animals. […] The process of the assignment to groups (enrollment, stratified randomization) may also be referred to as randomization. The day of randomization was designated as day 0 of the experiment.
(§6) Tumors were measured and mice were weighed twice a week during the experimental period. The first day of dosing was day 1, one day after randomization (day 0).

[10] = system: human gastric cancer NCI-N87 xenograft; assay: Human gastric cancer NCI-N87 xenograft model (Example 15); format: in vivo, mouse; settings: 5 mg/kg
Method: as §3

[11] = system: MSLN-expressing CHO cells; assay: ADCC activity, luciferase assay with Jurkat-Effector cells; format: cell-based
Method: MSLN-expressing CHO cells were thawed and seeded 1.000 cells/well (25 μL) in 96-well tissue culture plates in complete RPMI-4% Ultralow IgG FBS. […] 6,000 Jurkat-Effector cells (Promega) were thawed and added (25 μL) to the cell plate, and the plate was incubated at 37° C. 5% CO2 for 18-22 hours.
Luciferase assay reagent was thawed in the dark. 75 μL of luciferase assay reagent was added to each well, plates were shaken for 30 sec on a plate shaker. Plates were read on a luminometer after 5 min incubation.

[12] = system: human NSCLC PDX LXFL-529; assay: Human NSCLC PDX model LXFL-529; settings: 12.5 mg/kg i.v.
Description: as §4
Xenotransplantation: LXFL-529 established growing tumor (T3N1M0) from a primary non-small cell lung adenocarcinoma human patient.
as §5, with “mm^3)” for “mmi)”
as §6

[13] = system: human mesothelioma PDX Meso7212; assay: Human mesothelioma PDX model Meso7212 (Example 17); format: in vivo, mouse; settings: 10 mg/kg single dose i.v.
Method: Xenotransplantation: On day 0. Meso 7212 tumors were removed from the five donor mice under sterile conditions.
Experimental procedure: After the xenotransplantation, the engraftment and the propagation of the tumor in the mice were controlled at least twice weekly by palpation. When the tumor was palpable, the measurements of tumor diameters were performed with a digital caliper (Mitutoyo).
From the first treatment day onwards, tumor volumes and body weights were recorded twice weekly. The animal welfare was controlled twice daily.
Treatment: All agents were administered intravenously as a single dose on the day of randomization. Animals in the control group were treated with DPBS in the same manner.

[14] = biological target: mesothelin (Homo sapiens, UniProt Q13421); assay: Surface plasmon resonance (BIAcore) binding analysis of anti-mesothelin antibodies; settings: Table 15; rabbit-human chimeric antibodies, individual curves
Sequence of mesothelin (Q13421 with tags, fused parts or gaps): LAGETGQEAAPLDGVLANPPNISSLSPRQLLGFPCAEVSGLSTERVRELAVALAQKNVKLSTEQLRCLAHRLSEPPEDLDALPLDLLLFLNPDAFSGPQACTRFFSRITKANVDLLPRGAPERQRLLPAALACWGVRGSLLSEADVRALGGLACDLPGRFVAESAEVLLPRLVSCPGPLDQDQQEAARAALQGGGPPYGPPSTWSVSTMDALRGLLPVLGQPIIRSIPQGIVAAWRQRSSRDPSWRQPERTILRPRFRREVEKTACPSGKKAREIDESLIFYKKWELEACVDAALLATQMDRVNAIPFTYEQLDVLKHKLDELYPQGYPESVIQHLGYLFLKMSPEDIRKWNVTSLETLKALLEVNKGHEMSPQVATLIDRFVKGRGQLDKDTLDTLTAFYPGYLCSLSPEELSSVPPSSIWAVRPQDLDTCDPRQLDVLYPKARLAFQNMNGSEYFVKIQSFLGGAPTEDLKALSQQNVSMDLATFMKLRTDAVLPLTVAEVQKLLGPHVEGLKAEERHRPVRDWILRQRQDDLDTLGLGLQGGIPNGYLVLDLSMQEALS
Method: Anti-mesothelin antibody binding affinity to mesothelin was measured by BIAcore (BIAcore T-100, GE healthcare, #1426075), using a series S CM5 chip. Antibody concentrations were adjusted to 1 μg/mL and mesothelin (50 μg) to 100 nM in 1×HBS-P+ buffer (GE Healthcare). Anti-human antibody capture chip was prepared according to the manufacturer's protocol using a CM5 chip with immobilization wizard. Final capture antibody levels were 8000-9000 RU, in HBS-P+. Chip was prepared for assay with five cycles of 300 sec buffer injection followed by 30 sec regeneration, all at 30 μL/min across all four flow cells. Antibodies were captured on flow cells 2-4 by sequential injections of individual ligand solutions for 90 sec at 10 μL/min. Analyte injection was done in a single-cycle kinetics manner by sequential injections of analyte solutions from low to high concentration for 240 sec each at 30 μL/min. Detection was 2-1, 3-1, 4-1. Double-referencing was performed by a sequence of identical ligand capture injections, followed by 5 buffer-only injections for 240 sec each, dissociation for 1800 sec, and regeneration as above. All ligands were analyzed for binding to mesothelin in duplicate. Kinetic analysis was performed using BIAEvaluations software using a 1:1 Langmuir fitting model. On-rate, off-rate, and affinity constants were averaged from duplicate runs.

[15] = NCI-H292 cells (MSLN MFI 108.6)
[16] = NCI-H1568/MSLN cells (MSLN MFI 4474.00)
[17] = OVCAR3-A1 cells (MSLN MFI 220.0)
[18] = Table 34: BAY 94-9343 and anetumab, MSLN-expressing CHO cells, Jurkat-Effector cells

Molecule: 345A12-HC15-LC4: anti-mesothelin antibody, heavy chain SEQ ID NO: 17, light chain SEQ ID NO: 18; antibody in MORAb-109
- % Acidic Peaks [1]: 34.787%
- % Basic Peaks [1]: 14.424%
- % Neutral Peak [1]: 50.790%
- pI [1]: 8.25
- binding to cynomolgus monkey mesothelin [2]: retained binding affinity
- Concentration to 5 mg/mL [3]: Yes
- Aggregation % Monomer [4]: 86.56%
- binding to rat mesothelin [5]: Nether antibody bound

Molecule: COc1cc2cc(c1Cl)N(C)C(=O)C[C@H](OC(=O)[C@H](C)N(C)C(=O)CCC(C)(C)S)[C@]1(C)O[C@H]1[C@H](C)[C@@H]1C[C@@](O)(NC(=O)O1)[C@H](OC)/C=C/C=C(\C)C2 [DM4]
- % Max Killing ([6]; A431 cells (MSLN MFI 5.6)): 92.52%
- IC50 ([6]; A431 cells (MSLN MFI 5.6)): 0.71 nM
- % Max Killing ([6]; BxPC3 cells (MSLN MFI 15.59)): 97.98%
- IC50 ([6]; BxPC3 cells (MSLN MFI 15.59)): 0.57 nM
- % Max Killing ([6]; SKOV3 cells (MSLN MFI 20)): 81.89%
- IC50 ([6]; SKOV3 cells (MSLN MFI 20)): 0.28 nM
- % Max Killing [7, 15]: 92.40%
- % Max Killing [7, 16]: 77.49%
- % Max Killing [7, 17]: 100.00%
- IC50 [7, 15]: 0.24 nM
- IC50 [7, 16]: 0.57 nM
- IC50 [7, 17]: 0.1 nM

Molecule: BAY 94-9343: ADC comprising anetumab conjugated to the maytansinoid tubulin inhibitor DM4 via a reducible SPDB linker
- cytotoxicity on MSLN-negative cell lines [6]: killing on both MSLN-positive and MSLN-negative cell lines; also recorded: relatively high levels of cytotoxicity
- % Max Killing ([6]; A431 cells (MSLN MFI 5.6)): 96.82%
- IC50 ([6]; A431 cells (MSLN MFI 5.6)): 5.31 nM
- % Max Killing ([6]; BxPC3 cells (MSLN MFI 15.59)): 97.33%
- IC50 ([6]; BxPC3 cells (MSLN MFI 15.59)): 2.53 nM
- % Max Killing ([6]; SKOV3 cells (MSLN MFI 20)): 74.99%
- IC50 ([6]; SKOV3 cells (MSLN MFI 20)): 0.81 nM
- body weight change [8]: No body weight loss
- cytotoxicity on MSLN-positive cell lines [7]: killing on both MSLN-positive and MSLN-negative cell lines
- % Max Killing [7, 15]: 64.15%
- % Max Killing [7, 16]: 75.10%
- % Max Killing [7, 17]: 100.00%
- IC50 [7, 15]: 3.07 nM
- IC50 [7, 16]: 0.15 nM
- IC50 [7, 17]: 0.41 nM
- Tq (tumor volume quadrupling time) [9]: not reached
- anti-tumor efficacy [9]: robust anti-tumor efficacy similar to MORAb-109
- body weight change [10]: No body weight loss
- ADCC activity [11]: weaker ADCC activity than anetumab
- ADCC activity [11, 18]: 65.06%
- anti-tumor efficacy [12]: no anti-tumor efficacy
- anti-tumor effect [13]: tumor regression
- body weight change [13]: No body weight loss

Molecule: MORAb-009: known anti-mesothelin antibody, MORAb-009 (Amatuximab)
- Kd [14]: 0.15 nM
- ka [14]: 1.95e+06 M⁻¹ s⁻¹
- kd [14]: 0.000292 s⁻¹

Molecule: anetumab: a human anti-mesothelin antibody
- % Max Killing ([6]; A431 cells (MSLN MFI 5.6)): 18.58%
- IC50 ([6]; A431 cells (MSLN MFI 5.6)): > 300 nM
- % Max Killing ([6]; BxPC3 cells (MSLN MFI 15.59)): 25.73%
- IC50 ([6]; BxPC3 cells (MSLN MFI 15.59)): > 300 nM
- % Max Killing ([6]; SKOV3 cells (MSLN MFI 20)): 31.55%
- IC50 ([6]; SKOV3 cells (MSLN MFI 20)): > 300 nM
- % Max Killing [7, 15]: 15.15%
- % Max Killing [7, 16]: 5.50%
- % Max Killing [7, 17]: 19.80%
- IC50 [7, 15]: > 300 nM
- IC50 [7, 16]: > 100 nM
- IC50 [7, 17]: > 100 nM
- binding to cynomolgus monkey mesothelin [2]: did not bind
- ADCC activity [11, 18]: 100%
- binding to rat mesothelin [5]: Nether antibody bound

Source: patent US12564641B2 (EISAI R&D MANAGEMENT CO., LTD., priority 2019, dated 2026)
